Reference: US12338256B2, “Aza-tetracyclic oxazepine compounds and uses thereof” (Genentech, Inc., priority 2022, dated 2025)

What was measured:
Assay type in all cases: cell-based
[1] = test system: PC-9 (KRAS wild type human lung adenocarcinoma cell line); assay: KRAS 3D-Cell Proliferation Assay, PC-9 (Example 503); details: 168 h, PC-9 3D culture, 7 days, CellTiter-Glo 3D, read-out: Prolif PC9 3D ATP IC50
Procedure: Example 503: KRAS 3D-Cell Proliferation Assays. Cellular potencies of compounds are assessed by evaluating inhibition of proliferation in 3D cultures of homozygous mutant KRAS G12D human pancreatic cell lines (AsPC-1 and HPAC) as compared to a KRAS wild type human lung adenocarcinoma cell line (PC-9 and/or H1975). Cells are seeded into 384-well black round-bottom, ultra-low attachment assay plates in 50 uL cell growth medium (RPMI-1640 with 10% fetal bovine serum and 2 mM L-glutamine). After overnight incubation at 37° C. and 5% CO2, compounds solubilized in DMSO are added as dilution series to the wells in a total volume of 150 nL (0.3% DMSO final). The cells are incubated for 7 days at 37° C. and 5% CO2. Cell proliferation is quantitated by addition of 40 uL/well of CellTiter-GloÒ 3D (Promega), and the well contents are mixed 20× at high speed using liquid handling automation workstation (Bravo with 384-well head) and centrifuged at 1500 rpm for 2 minutes to eliminate bubbles. This reagent in combination with mechanical disruption releases the cellular ATP to promote activity in a luciferase-based enzyme/substrate chemiluminescent detection system. After a 30-minute incubation under ambient conditions with shaking and an additional 10 minutes without shaking, the luminescence is read on a plate reader (e.g., EnVision [PerkinElmer]). The results are normalized to percent inhibition based on the following control samples: DMSO (0% inhibition) and 1 μM staurosporine (100% inhibition). The normalized luminescence results are plotted against compound concentration, and the data are fit to a 4-parameter Hill equation to determine the IC50 values.

[2] = test system: AsPC-1 (homozygous mutant KRAS G12D human pancreatic cell line); assay: KRAS 3D-Cell Proliferation Assay, AsPC-1 (Example 503); details: Homo sapiens, ASPC1, 168 h, AsPC-1 3D culture, 7 days, CellTiter-Glo 3D; read-out: Prolif AsPC-1 3D ATP IC50
How it was run: (§1)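 Luminescent ATP readout (CellTiter-Glo 3D, with mechanical mixing) measures growth of cells cultured in 3D after a 7-day compound exposure at 37° C. Percent inhibition is referenced to vehicle (DMSO) and 1 μM staurosporine controls, and IC50 comes from a four-parameter Hill fit.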

[3] = test system: HPAC (homozygous mutant KRAS G12D human pancreatic cell line); assay: KRAS 3D-Cell Proliferation Assay, HPAC (Example 503); details: Homo sapiens, HPAC, 168 h, HPAC 3D culture, 7 days, CellTiter-Glo 3D; read-out: Prolif HPAC 3D ATP IC50
How it was run: as §1

[4] = test system: H1975 (KRAS wild type human lung adenocarcinoma cell line); assay: KRAS 3D-Cell Proliferation Assay, H1975 (Example 503); details: Homo sapiens, NCI-H1975, 168 h, H1975 3D culture, 7 days, CellTiter-Glo 3D; read-out: Prolif H1975 3D ATP IC50
How it was run: as §1

Cc1c(F)c(N)cc(-c2nc3c4c(nc(OC[C@@H]5C[C@@H](F)CN5C)nc4c2F)N2C[C@H]4CC[C@H](N4)[C@H]2[C@H](C)O3)c1C(F)(F)F [Compound 26, 2-Fluoro-5-((5S,5aS,6S,9R)-1-fluoro-12-(((2S,4R)-4-fluoro-1-methylpyrrolidin-2-yl)methoxy)-5-methyl-5a,6,7,8,9,10-hexahydro-5H-4-oxa-3,10a,11,13,14-pentaaza-6,9-methanonaphtho[1,8-ab]heptalen-2-yl)-3-methyl-4-(trifluoromethyl)aniline]
IC50 [1]: 7.64 µM
IC50 [2]: 0.00519 µM
IC50 [3]: 0.00324 µM
IC50 [4]: 1.54 µM

C=C1CN2CCC[C@@]2(COc2nc3c4c(nc(-c5nc(N)cc(C)c5C(F)(F)F)c(F)c4n2)O[C@@H](C)[C@@H]2[C@@H]4CC[C@H](CN32)N4)C1 [Compound 48, 6-((5S,5aS,6S,9R)-1-fluoro-5-methyl-12-(((S)-2-methylenetetrahydro-1H-pyrrolizin-7a(5H)-yl)methoxy)-5a,6,7,8,9,10-hexahydro-5H-4-oxa-3,10a,11,13,14-pentaaza-6,9-methanonaphtho[1,8-ab]heptalen-2-yl)-4-methyl-5-(trifluoromethyl)pyridin-2-amine]
IC50 [1]: ≥ 20 µM
IC50 [2]: 0.00824 µM
IC50 [3]: 0.00552 µM
IC50 [4]: 5.76 µM

C[C@@H]1Oc2nc(-c3cc(O)cc4ccccc34)c(F)c3nc(OC[C@]45CCN4CC(F)(F)C5)nc(c23)N2C[C@H]3CC[C@H](N3)[C@@H]12 [Compound 25, 4-((5S,5aS,6S,9R)-12-(((R)-3,3-difluoro-1-azabicyclo[3.2.0]heptan-5-yl)methoxy)-1-fluoro-5-methyl-5a,6,7,8,9,10-hexahydro-5H-4-oxa-3,10a,11,13,14-pentaaza-6,9-methanonaphtho[1,8-ab]heptalen-2-yl)naphthalen-2-ol]
IC50 [1]: 11 µM
IC50 [2]: 0.464 µM
IC50 [3]: 0.0788 µM
IC50 [4]: 10.7 µM

Cc1cc(N)nc(-c2nc3c4c(nc(OC[C@@]56CCCN5CC5(CC5(F)F)C6)nc4c2F)N2C[C@H]4CC[C@H](N4)[C@H]2CO3)c1C(F)(F)F (stereo partly drawn) [Compound 42, 6-((5aS,6S,9R)-12-(((7a′S)-2,2-difluorodihydro-1′H,3′H-spiro[cyclopropane-1,2′-pyrrolizin]-7a′(5′H)-yl)methoxy)-1-fluoro-5a,6,7,8,9,10-hexahydro-5H-4-oxa-3,10a,11,13,14-pentaaza[6,9]methanonaphtho[1,8-ab]heptalen-2-yl)-4-methyl-5-(trifluoromethyl)pyridin-2-amine]
IC50 [1]: 7.04 µM
IC50 [2]: 0.122 µM

Cn1ncc2ccc(F)c(-c3nc4c5c(nc(OC[C@@]67CCCN6C[C@H](F)C7)nc5c3F)N3C[C@H]5CC[C@H](N5)[C@H]3CO4)c21 [Compound 4, (5aS,6S,9R)-1-fluoro-2-(6-fluoro-1-methyl-1H-indazol-7-yl)-12-(((2R,7aS)-2-fluorotetrahydro-1H-pyrrolizin-7a(5H)-yl)methoxy)-5a,6,7,8,9,10-hexahydro-5H-4-oxa-3,10a,11,13,14-pentaaza-6,9-methanonaphtho[1,8-ab]heptalene]
IC50 [1]: 13.3 µM
IC50 [2]: 9.75 µM

C#Cc1c(F)ccc2cccc(-c3nc4c5c(ncnc5c3F)N3C[C@H]5CC[C@H](N5)[C@H]3[C@H](C)O4)c12 [Compound 56, (5S,5aS,6S,9R)-2-(8-ethynyl-7-fluoronaphthalen-1-yl)-1-fluoro-5-methyl-5a,6,7,8,9,10-hexahydro-5H-4-oxa-3,10a,11,13,14-pentaaza-6,9-methanonaphtho[1,8-ab]heptalene]
IC50 [1]: ≥ 20 µM
IC50 [2]: 5.74 µM

C[C@@H]1Oc2nc(-c3nc(N)ccc3C(F)(F)F)c(F)c3nc(OC[C@@]45CCCN4C[C@H](F)C5)nc(c23)N2C[C@H]3CC[C@H](N3)[C@@H]12 [Compound 85, 6-((5S,5aS,6S,9R)-1-fluoro-12-(((2R,7aS)-2-fluorotetrahydro-1H-pyrrolizin-7a(5H)-yl)methoxy)-5-methyl-5a,6,7,8,9,10-hexahydro-5H-4-oxa-3,10a,11,13,14-pentaaza-6,9-methanonaphtho[1,8-ab]heptalen-2-yl)-5-(trifluoromethyl)pyridin-2-amine]
IC50 [1]: ≥ 20 µM
IC50 [2]: 0.975 µM

C[C@@H]1Oc2nc(-c3nc(N)c(F)cc3C(F)(F)F)c(F)c3nc(OC[C@@]45CCCN4C[C@H](F)C5)nc(c23)N2C[C@H]3CC[C@H](N3)[C@@H]12 [Compound 84, 3-Fluoro-6-((5S,5aS,6S,9R)-1-fluoro-12-(((2R,7aS)-2-fluorotetrahydro-1H-pyrrolizin-7a(5H)-yl)methoxy)-5-methyl-5a,6,7,8,9,10-hexahydro-5H-4-oxa-3,10a,11,13,14-pentaaza-6,9-methanonaphtho[1,8-ab]heptalen-2-yl)-5-(trifluoromethyl)pyridin-2-amine]
IC50 [1]: ≥ 20 µM
IC50 [2]: 1.16 µM

C[C@@H]1Oc2nc(-c3nc(N)cc4ccccc34)c(F)c3nc(OC[C@@]45CCCN4C[C@H](F)C5)nc(c23)N2C[C@H]3CC[C@H](N3)[C@@H]12 [Compound 41, 1-((5S,5aS,6S,9R)-1-fluoro-12-(((2R,7aS)-2-fluorotetrahydro-1H-pyrrolizin-7a(5H)-yl)methoxy)-5-methyl-5a,6,7,8,9,10-hexahydro-5H-4-oxa-3,10a,11,13,14-pentaaza-6,9-methanonaphtho[1,8-ab]heptalen-2-yl)isoquinolin-3-amine]
IC50 [1]: ≥ 20 µM
IC50 [2]: 0.98 µM

C[C@@H]1Oc2nc(-c3cc(N)c(F)cc3C(F)(F)F)c(F)c3nc(OC[C@]45CCN4CC(F)(F)C5)nc(c23)N2C[C@H]3CC[C@H](N3)[C@@H]12 [Compound 71, 5-((5S,5aS,6S,9R)-12-(((R)-3,3-Difluoro-1-azabicyclo[3.2.0]heptan-5-yl)methoxy)-1-fluoro-5-methyl-5a,6,7,8,9,10-hexahydro-5H-4-oxa-3,10a,11,13,14-pentaaza-6,9-methanonaphtho[1,8-ab]heptalen-2-yl)-2-fluoro-4-(trifluoromethyl)aniline]
IC50 [1]: ≥ 20 µM
IC50 [2]: 0.132 µM

Oc1cc(-c2nc3c4c(nc(OC[C@@]56CCCN5C[C@H](F)C6)nc4c2F)N2C[C@H]4CC[C@H](N4)[C@H]2CO3)c2c(F)cccc2c1 [Compound 1, 5-Fluoro-4-((5aS,6S,9R)-1-fluoro-12-(((2R,7aS)-2-fluorotetrahydro-1H-pyrrolizin-7a(5H)-yl)methoxy)-5a,6,7,8,9,10-hexahydro-5H-4-oxa-3,10a,11,13,14-pentaaza-6,9-methanonaphtho[1,8-ab]heptalen-2-yl)naphthalen-2-ol]
IC50 [1]: 16.9 µM
IC50 [2]: 0.226 µM

Cc1cc(-c2nc3c4c(nc(OC[C@@]56CCCN5C[C@H](F)C6)nc4c2F)N2C[C@H]4CC[C@H](N4)[C@H]2[C@H](C)O3)cc(N)c1F [Compound 13, 2-fluoro-5-((5S,5aS,6S,9R)-1-fluoro-12-(((2R,7aS)-2-fluorotetrahydro-1H-pyrrolizin-7a(5H)-yl)methoxy)-5-methyl-5a,6,7,8,9,10-hexahydro-5H-4-oxa-3,10a,11,13,14-pentaaza-6,9-methanonaphtho[1,8-ab]heptalen-2-yl)-3-methylaniline]
IC50 [1]: 3.53 µM
IC50 [2]: 1.87 µM

C[C@@H]1Oc2nc(-c3cnccc3C(F)(F)F)c(F)c3nc(OC[C@]45CCN4CC(F)(F)C5)nc(c23)N2C[C@H]3CC[C@H](N3)[C@@H]12 [Compound 78, (5S,5aS,6S,9R)-12-(((R)-3,3-Difluoro-1-azabicyclo[3.2.0]heptan-5-yl)methoxy)-1-fluoro-5-methyl-2-(4-(trifluoromethyl)pyridin-3-yl)-5a,6,7,8,9,10-hexahydro-5H-4-oxa-3,10a,11,13,14-pentaaza-6,9-methanonaphtho[1,8-ab]heptalene]
IC50 [1]: ≥ 20 µM
IC50 [2]: 15.9 µM

Cc1c(F)c(N)cc(-c2nc3c4c(nc(OC[C@@]56CCCN5C[C@H](OCc5ccc(-c7ccccc7C#N)cc5)C6)nc4c2F)N2C[C@H]4CC[C@H](N4)[C@H]2[C@H](C)O3)c1C(F)(F)F [Compound 32, 4′-((((2R,7aS)-7a-((((5S,5aS,6S,9R)-2-(5-amino-4-fluoro-3-methyl-2-(trifluoromethyl)phenyl)-1-fluoro-5-methyl-5a,6,7,8,9,10-hexahydro-5H-4-oxa-3,10a,11,13,14-pentaaza-6,9-methanonaphtho[1,8-ab]heptalen-12-yl)oxy)methyl)hexahydro-1H-pyrrolizin-2-yl)oxy)methyl)-[1,1′-biphenyl]-2-carbonitrile]
IC50 [1]: 0.821 µM
IC50 [2]: 0.00338 µM
